According to the supplement of paper PMC10307832:

Legend:
Experiment in all cases: relative viability (nuclei count vs DMSO), 5 days (fraction); higher = more cells survive
HCC-78 = system: HCC-78
Summary of the method: (§1)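 Lung cancer cell lines were pin-tool dosed in 1536-well plates on the day after seeding, with either a lone drug or a fixed anchor-drug dose plus five library-drug doses (not always all listed) in √10 steps. Nuclei were counted on 4× images after 5 days. Relative viability is the ratio of treated-well to vehicle-well nuclei counts, with each value a median of duplicate plates.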

UMC-11 = system: UMC-11
Summary of the method: as §1

BEN = system: BEN
Summary of the method: as §1

NCI-H1395 = system: NCI-H1395
Summary of the method: as §1

LXF-289 = system: LXF-289
Summary of the method: as §1

LC-2-ad = system: LC-2-ad
Summary of the method: as §1

RERF-LC-KJ = system: RERF-LC-KJ
Summary of the method: as §1

HARA = system: HARA
Summary of the method: as §1

LOU-NH91 = system: LOU-NH91
Summary of the method: as §1

LU99A = system: LU99A
Summary of the method: as §1

H3255 = system: H3255
Summary of the method: as §1

EMC-BAC-2 = system: EMC-BAC-2
Summary of the method: as §1

NCI-H2126 = system: NCI-H2126
Summary of the method: as §1

201T = system: 201T
Summary of the method: as §1

HOP-62 = system: HOP-62
Summary of the method: as §1

NCI-H2087 = system: NCI-H2087
Summary of the method: as §1

COR-L 105 = system: COR-L 105
Summary of the method: as §1

SK-MES-1 = system: SK-MES-1
Summary of the method: as §1

NCI-H2170 = system: NCI-H2170
Summary of the method: as §1

Compound: Cc1cn(-c2cc(NC(=O)c3ccc(C)c(Nc4nccc(-c5cccnc5)n4)c3)cc(C(F)(F)F)c2)cn1 [Nilotinib] + CC1(C)CCC(c2ccc(Cl)cc2)=C(CN2CCN(c3ccc(C(=O)NS(=O)(=O)c4ccc(N[C@H](CCN5CCOCC5)CSc5ccccc5)c(S(=O)(=O)C(F)(F)F)c4)cc3)CC2)C1 [Navitoclax] (partner 0.5 µM)
- relative viability (HCC-78; first compound 0.001 µM): 0.876
- relative viability (HCC-78; first compound 0.003162 µM): 0.692
- relative viability (HCC-78; first compound 0.01 µM): 0.945
- relative viability (HCC-78; first compound 0.03162 µM): 0.724
- relative viability (HCC-78; first compound 0.1 µM): 0.737
- relative viability (UMC-11; first compound 0.001 µM): 0.303
- relative viability (UMC-11; first compound 0.003162 µM): 0.303
- relative viability (UMC-11; first compound 0.01 µM): 0.317
- relative viability (UMC-11; first compound 0.1 µM): 0.301
- relative viability (BEN; first compound 0.001 µM): 0.0648
- relative viability (BEN; first compound 0.003162 µM): 0.0542
- relative viability (BEN; first compound 0.01 µM): 0.0592
- relative viability (BEN; first compound 0.1 µM): 0.0654
- relative viability (NCI-H1395; first compound 0.001 µM): 1.03
- relative viability (NCI-H1395; first compound 0.003162 µM): 0.815
- relative viability (NCI-H1395; first compound 0.01 µM): 1.1
- relative viability (NCI-H1395; first compound 0.03162 µM): 1.11
- relative viability (NCI-H1395; first compound 0.1 µM): 1.05
- relative viability (LXF-289; first compound 0.001 µM): 0.904
- relative viability (LXF-289; first compound 0.003162 µM): 1.09
- relative viability (LXF-289; first compound 0.01 µM): 1.05
- relative viability (LXF-289; first compound 0.03162 µM): 0.855
- relative viability (LXF-289; first compound 0.1 µM): 0.878
- relative viability (LC-2-ad; first compound 0.001 µM): 0.376
- relative viability (LC-2-ad; first compound 0.003162 µM): 0.396
- relative viability (LC-2-ad; first compound 0.01 µM): 0.467
- relative viability (LC-2-ad; first compound 0.03162 µM): 0.339
- relative viability (LC-2-ad; first compound 0.1 µM): 0.365
- relative viability (RERF-LC-KJ; first compound 0.001 µM): 1.07
- relative viability (RERF-LC-KJ; first compound 0.003162 µM): 0.949
- relative viability (RERF-LC-KJ; first compound 0.01 µM): 1.24
- relative viability (RERF-LC-KJ; first compound 0.03162 µM): 1.15
- relative viability (RERF-LC-KJ; first compound 0.1 µM): 1.08
- relative viability (HARA; first compound 0.001 µM): 1.07
- relative viability (HARA; first compound 0.003162 µM): 1.26
- relative viability (HARA; first compound 0.01 µM): 1.24
- relative viability (HARA; first compound 0.03162 µM): 1.06
- relative viability (HARA; first compound 0.1 µM): 1.15
- relative viability (LOU-NH91; first compound 0.001 µM): 0.644
- relative viability (LOU-NH91; first compound 0.003162 µM): 0.685
- relative viability (LOU-NH91; first compound 0.01 µM): 0.846
- relative viability (LOU-NH91; first compound 0.03162 µM): 0.608
- relative viability (LOU-NH91; first compound 0.1 µM): 0.658
- relative viability (LU99A; first compound 0.001 µM): 0.761
- relative viability (LU99A; first compound 0.003162 µM): 0.904
- relative viability (LU99A; first compound 0.01 µM): 0.985
- relative viability (LU99A; first compound 0.03162 µM): 0.76
- relative viability (LU99A; first compound 0.1 µM): 0.479
- relative viability (H3255; first compound 0.001 µM): 0.508
- relative viability (H3255; first compound 0.003162 µM): 0.479
- relative viability (H3255; first compound 0.01 µM): 0.541
- relative viability (H3255; first compound 0.03162 µM): 0.246
- relative viability (H3255; first compound 0.1 µM): 0.382
- relative viability (EMC-BAC-2; first compound 0.001 µM): 0.919
- relative viability (EMC-BAC-2; first compound 0.003162 µM): 1.45
- relative viability (EMC-BAC-2; first compound 0.01 µM): 1.69
- relative viability (EMC-BAC-2; first compound 0.03162 µM): 0.852
- relative viability (EMC-BAC-2; first compound 0.1 µM): 1.23
- relative viability (NCI-H2126; first compound 0.001 µM): 0.861
- relative viability (NCI-H2126; first compound 0.003162 µM): 0.891
- relative viability (NCI-H2126; first compound 0.01 µM): 0.89
- relative viability (NCI-H2126; first compound 0.03162 µM): 0.846
- relative viability (NCI-H2126; first compound 0.1 µM): 0.82
- relative viability (201T; first compound 0.001 µM): 1.22
- relative viability (201T; first compound 0.003162 µM): 1.29
- relative viability (201T; first compound 0.01 µM): 1.25
- relative viability (201T; first compound 0.1 µM): 1.21
- relative viability (HOP-62; first compound 0.001 µM): 0.832
- relative viability (HOP-62; first compound 0.003162 µM): 1.05
- relative viability (HOP-62; first compound 0.01 µM): 1.24
- relative viability (HOP-62; first compound 0.03162 µM): 0.94
- relative viability (HOP-62; first compound 0.1 µM): 0.454
- relative viability (NCI-H2087; first compound 0.001 µM): 0.795
- relative viability (NCI-H2087; first compound 0.003162 µM): 0.86
- relative viability (NCI-H2087; first compound 0.01 µM): 0.997
- relative viability (NCI-H2087; first compound 0.03162 µM): 0.93
- relative viability (NCI-H2087; first compound 0.1 µM): 0.734
- relative viability (COR-L 105; first compound 0.001 µM): 0.709
- relative viability (COR-L 105; first compound 0.01 µM): 0.696
- relative viability (COR-L 105; first compound 0.03162 µM): 0.644
- relative viability (COR-L 105; first compound 0.1 µM): 0.848
- relative viability (SK-MES-1; first compound 0.001 µM): 1.17
- relative viability (SK-MES-1; first compound 0.003162 µM): 1.5
- relative viability (SK-MES-1; first compound 0.01 µM): 1.61
- relative viability (SK-MES-1; first compound 0.03162 µM): 1.1
- relative viability (SK-MES-1; first compound 0.1 µM): 1.29
- relative viability (NCI-H2170; first compound 0.001 µM): 0.483
- relative viability (NCI-H2170; first compound 0.003162 µM): 0.64
- relative viability (NCI-H2170; first compound 0.01 µM): 0.716
- relative viability (NCI-H2170; first compound 0.03162 µM): 0.56
- relative viability (NCI-H2170; first compound 0.1 µM): 0.771
